Source: publication PMC9138505, “Small Molecule 20S Proteasome Enhancer Regulates MYC Protein Stability and Exhibits Antitumor Activity in Multiple Myeloma” (Biomedicines, 2022)
Several values for one entry are separate records, joined by “and”; a condition that tells them apart may be missing. Equal entries are not always repeated.

Tested on: RPMI-8226 cells
Test: Gene expression profiling, NanoString nCounter PanCancer Pathways Panel, ROSALIND analysis
Format: cell-based, human
Protocol: RPMI-8226 cells were treated with vehicle or TCH-165 (10 μM) for 4 h. Total RNA was obtained using the mirVana miRNA Isolation Kit, with phenol (Thermofisher Scientific; AM1560; Waltham, MA, USA). Total RNA was quantified by Qubit (Thermofisher Scientific; Q32855; Waltham, MA, USA). and gene expression was evaluated against the nCounter® PanCancer Pathways Panel^TM according to the standard NanoString protocol.
Data were analyzed by ROSALIND® [36] with a hyperscale architecture developed by ROSALIND, Inc. (San Diego, CA, USA). Normalization, fold changes and p-values were calculated using criteria provided by NanoString. ROSALIND follows the nCounter® Advanced Analysis protocol of dividing counts within a lane by the geometric mean of the normalizer probes from the same lane. Housekeeping probes to be used for normalization are selected based on the geNorm algorithm, as implemented in the NormqPCR R library. Fold changes and p-values are calculated using the fast method as described in the nCounter Advanced Analysis 2.0 User Manual. The p-value adjustment is performed using the Benjamini–Hochberg method of estimating false discovery rates (FDR). Clustering of genes for the final heatmap of differentially expressed genes was done using the PAM (Partitioning Around Medoids) method using the fpc R library. Hypergeometric distribution was used to analyze the enrichment of pathways, gene ontology, domain structure and other ontologies. The topGO R library was used to determine local similarities and dependencies between GO terms in order to perform Elim pruning correction. Several database sources were referenced for enrichment analysis, including Interpro [40], NCBI [41], MSigDB [42, 43], REACTOME [44], WikiPathways. Enrichment was calculated relative to a set of background genes relevant to the experiment.

[1] = RPMI-8226 cells, TCH-165 treatment samples 1-3

Structure (SMILES): CCOC(=O)[C@]1(c2ccccc2)N=C(c2ccc(OC)cc2)N(Cc2ccccc2)[C@@H]1c1ccc(NCc2ccccc2)cc1 [TCH-165]
- VEGFC normalized gene expression (RPMI-8226, TCH-165 samples 1-3): 4.571 and 4.699 and 4.731
- VHL normalized gene expression (RPMI-8226, TCH-165 samples 1-3): 9.098 and 9.164 and 9.268
- WEE1 normalized gene expression (RPMI-8226, TCH-165 samples 1-3): 9.934 and 9.744 and 9.778
- WHSC1L1 normalized gene expression (RPMI-8226, TCH-165 samples 1-3): 9.091 and 9.1675 and 9.063
- WHSC1 normalized gene expression (RPMI-8226, TCH-165 samples 1-3): 9.949 and 9.835 and 9.719
- WIF1 normalized gene expression (RPMI-8226, TCH-165 samples 1-3): 5.758 and 4.855 and 4.805
- WNT2B normalized gene expression (RPMI-8226, TCH-165 samples 1-3): 5.308 and 4.427 and 4.528
- WNT2 normalized gene expression (RPMI-8226, TCH-165 samples 1-3): 5.827 and 5.242 and 5.592
- WNT3 normalized gene expression (RPMI-8226, TCH-165 samples 1-3): 5.044 and 4.7789 and 4.9095
- WNT4 normalized gene expression (RPMI-8226, TCH-165 samples 1-3): 4.488 and 3.817 and 3.5707
- WNT5A normalized gene expression (RPMI-8226, TCH-165 samples 1-3): 6.308 and 6.154 and 6.184
- WNT6 normalized gene expression (RPMI-8226, TCH-165 samples 1-3): 4.924 and 4.739 and 4.437
- WNT7A normalized gene expression (RPMI-8226, TCH-165 samples 1-3): 5.208 and 4.962 and 4.9095
- WNT7B normalized gene expression (RPMI-8226, TCH-165 samples 1-3): 3.723 and 3.27 and 3.805
- WNT10B normalized gene expression (RPMI-8226, TCH-165 samples 1-3): 5.259 and 5.27 and 5.211
- WNT11 normalized gene expression (RPMI-8226, TCH-165 samples 1-3): 4.308 and 4.154 and 3.876
- WNT16 normalized gene expression (RPMI-8226, TCH-165 samples 1-3): 4.986 and 4.27 and 4.693
- WT1 normalized gene expression (RPMI-8226, TCH-165 samples 1-3): 4.571 and 4.476 and 4.341
- XPA normalized gene expression (RPMI-8226, TCH-165 samples 1-3): 8.195 and 7.97 and 8.109
- XRCC4 normalized gene expression (RPMI-8226, TCH-165 samples 1-3): 8.283 and 8.506 and 8.426
- ZAK normalized gene expression (RPMI-8226, TCH-165 samples 1-3): 4.793 and 4.2133 and 4.238
- ZBTB16 normalized gene expression (RPMI-8226, TCH-165 samples 1-3): 2.986 and 2.891 and 3.0682
- ZBTB32 normalized gene expression (RPMI-8226, TCH-165 samples 1-3): 4.101 and 4.093 and 3.731
- ZIC2 normalized gene expression (RPMI-8226, TCH-165 samples 1-3): 4.86 and 4.154 and 4.291
- Normalized gene expression, ACVR1C [1]: 4.723 and 4.614 and 4.693
- Normalized gene expression, ALKBH2 [1]: 6.955 and 6.808 and 6.991
- Normalized gene expression, ALKBH3 [1]: 8.467 and 8.37 and 8.417
- Normalized gene expression, AMER1 [1]: 6.704 and 6.569 and 6.56
- Normalized gene expression, APH1B [1]: 6.101 and 5.7789 and 5.991
- Normalized gene expression, ARID1B [1]: 9.42 and 9.304 and 9.241
- Normalized gene expression, ARID2 [1]: 9.514 and 9.28 and 9.287
- Normalized gene expression, ASXL1 [1]: 9.934 and 9.758 and 9.627
- Normalized gene expression, BIRC7 [1]: 4.401 and 4.2133 and 4.0682
- Normalized gene expression, BMP8A [1]: 6.156 and 5.759 and 5.787
- Normalized gene expression, BRIP1 [1]: 8.576 and 8.341 and 8.466
- Normalized gene expression, CACNA2D3 [1]: 2.986 and 2.154 and 2.483
- Normalized gene expression, CACNA2D4 [1]: 4.793 and 4.739 and 4.291
- Normalized gene expression, CACNG6 [1]: 5.101 and 4.093 and 4.653
- Normalized gene expression, CALML6 [1]: 4.986 and 4.996 and 5.038
- Normalized gene expression, CARD11 [1]: 6.55 and 6.729 and 6.472
- Normalized gene expression, CASP12 [1]: 5.208 and 4.891 and 4.653
- Normalized gene expression, CCNB3 [1]: 2.401 and 3.3768 and 3.184
- Normalized gene expression, COL6A6 [1]: 3.986 and 4.324 and 4.184
- Normalized gene expression, COL24A1 [1]: 5.488 and 5.2133 and 5.316
- Normalized gene expression, COL27A1 [1]: 4.986 and 5.154 and 5.098
- Normalized gene expression, CREB3L1 [1]: 3.86 and 3.657 and 3.39
- Normalized gene expression, CREB3L3 [1]: 2.723 and 2.891 and 2.943
- Normalized gene expression, CREB3L4 [1]: 7.001 and 6.678 and 6.702
- Normalized gene expression, CRLF2 [1]: 5.723 and 5.798 and 5.75
- Normalized gene expression, CXXC4 [1]: 6.156 and 6.2133 and 5.858
- Normalized gene expression, DTX3 [1]: 3.986 and 4.2133 and 4.238
- Normalized gene expression, FAAP24 [1]: 7.343 and 7.012 and 7.17
- Normalized gene expression, FBXW7 [1]: 6.571 and 6.488 and 6.528
- Normalized gene expression, GDF6 [1]: 4.101 and 4.657 and 4.0068
- Normalized gene expression, GNG12 [1]: 4.793 and 4.855 and 4.693
- Normalized gene expression, H3F3C [1]: 12.4579 and 12.5235 and 12.4804
- Normalized gene expression, HDAC10 [1]: 8.066 and 7.808 and 7.722
- Normalized gene expression, HDAC11 [1]: 5.156 and 4.927 and 5.291
- Normalized gene expression, HES5 [1]: 6.355 and 5.657 and 5.893
- Normalized gene expression, HHIP [1]: 3.986 and 3.739 and 3.653
- Normalized gene expression, IL22RA1 [1]: 5.156 and 5.0613 and 5.316
- Normalized gene expression, IL22RA2 [1]: 5.445 and 4.817 and 4.437
- Normalized gene expression, IL23R [1]: 4.986 and 4.614 and 4.291
- Normalized gene expression, KMT2C [1]: 9.426 and 9.461 and 9.455
- Normalized gene expression, LAMA1 [1]: 4.986 and 4.27 and 4.184
- Normalized gene expression, MAML2 [1]: 8.948 and 9.039 and 8.92
- Normalized gene expression, NFKBIZ [1]: 7.259 and 6.9093 and 6.832
- Normalized gene expression, NKD1 [1]: 5.445 and 5.3768 and 5.437
- Normalized gene expression, NSD1 [1]: 7.758 and 7.832 and 7.75
- Normalized gene expression, PAK7 [1]: 2.986 and 3.891 and 3.39
- Normalized gene expression, PDGFC [1]: 6.509 and 6.415 and 6.1271
- Normalized gene expression, PDGFD [1]: 4.401 and 4.27 and 4.0068
- Normalized gene expression, PHF6 [1]: 9.829 and 9.914 and 9.8
- Normalized gene expression, PLA2G4E [1]: 3.86 and 4.029 and 4.0682
- Normalized gene expression, PLA2G4F [1]: 4.208 and 4.154 and 3.483
- Normalized gene expression, POLD4 [1]: 8.314 and 8.1355 and 8.194
- Normalized gene expression, PRMT8 [1]: 4.308 and 4.476 and 4.341
- Normalized gene expression, PTCRA [1]: 3.986 and 4.3768 and 4.238
- Normalized gene expression, PTPN5 [1]: 4.571 and 4.476 and 4.39
- Normalized gene expression, SHC4 [1]: 5.571 and 4.891 and 5.0068
- Normalized gene expression, SOX17 [1]: 4.101 and 4.154 and 3.483
- Normalized gene expression, SPRY4 [1]: 5.044 and 5.093 and 5.366
- Normalized gene expression, SUV39H2 [1]: 8.912 and 8.7789 and 8.832
- Normalized gene expression, TBL1XR1 [1]: 13.2408 and 13.1822 and 13.1378
- Normalized gene expression, TCF7L1 [1]: 5.101 and 4.739 and 5.461
- Normalized gene expression, THEM4 [1]: 7.581 and 7.249 and 7.3536
- Normalized gene expression, TNN [1]: 4.986 and 4.7789 and 4.39
- Normalized gene expression, TRAF7 [1]: 10.2015 and 10.0643 and 10.0175
- Normalized gene expression, TSLP [1]: 4.571 and 4.699 and 4.769
- Normalized gene expression, WNT5B [1]: 5.208 and 5.093 and 5.238
- Normalized gene expression, WNT10A [1]: 5.924 and 6.045 and 6.17
